Earlier results, collected in patent EP2179733A1, “PHARMACEUTICAL COMPOSITION COMBINING AN ANTIMICROBIAL AGENT AND A SELECTIVE ENKEPHALINASE ENZYME INHIBITOR, WHICH CAN BE USED TO CONTROL AND TREAT ACUTE BACTERIAL DIARRHOEA” (World Trade Import-Export, WTIE A.G., priority 2007, dated 2009).

How the values were obtained:
plasmatic enkephalinase = molecular target: T1, plasmatic enkephalinase (Homo sapiens, UniProt P08473)
T1 construct: from tissue; host or cells: plasma after oral administration of Racecadotril
T1 sequence (P08473 whole entry): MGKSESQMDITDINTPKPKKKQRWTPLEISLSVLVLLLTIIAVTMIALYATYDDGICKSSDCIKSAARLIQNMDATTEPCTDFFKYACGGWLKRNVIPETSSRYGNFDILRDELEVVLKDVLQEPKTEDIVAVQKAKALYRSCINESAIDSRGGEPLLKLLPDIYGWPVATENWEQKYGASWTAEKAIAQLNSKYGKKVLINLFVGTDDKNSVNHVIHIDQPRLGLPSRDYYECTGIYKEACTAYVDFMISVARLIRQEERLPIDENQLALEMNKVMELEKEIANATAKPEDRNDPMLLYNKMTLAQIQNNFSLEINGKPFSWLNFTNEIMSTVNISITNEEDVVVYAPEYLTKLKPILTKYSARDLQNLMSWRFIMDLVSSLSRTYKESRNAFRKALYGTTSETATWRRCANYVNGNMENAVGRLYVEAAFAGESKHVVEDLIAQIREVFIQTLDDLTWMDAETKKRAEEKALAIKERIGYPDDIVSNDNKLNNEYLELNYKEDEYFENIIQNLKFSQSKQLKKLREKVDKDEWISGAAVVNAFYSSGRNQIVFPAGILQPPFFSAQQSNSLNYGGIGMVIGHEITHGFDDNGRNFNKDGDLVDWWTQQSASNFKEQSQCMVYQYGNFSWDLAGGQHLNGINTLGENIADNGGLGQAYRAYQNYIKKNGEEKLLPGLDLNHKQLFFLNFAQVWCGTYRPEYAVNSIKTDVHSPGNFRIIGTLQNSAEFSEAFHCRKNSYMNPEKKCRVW

duration of inhibiting effect over plasmatic enkephalinase (plasmatic enkephalinase; 1.5 mg/kg oral doses): about 8 hours
maximum enzymatic inhibition level (plasmatic enkephalinase; 1.5 mg/kg oral doses): about 90%
start of plasmatic enkephalinase inhibiting effect after administration (plasmatic enkephalinase; oral administration): 30 min
time to maximum activity (plasmatic enkephalinase; oral administration): 2 h
delay of maximum activity when administered with food (plasmatic enkephalinase; with food): about one and half
administered dose distributed in tissues (in vivo): 1%
mean life (in vivo): about 3 hours
time to maximum concentration from administration (oral administration): 60 min
bioavailability when administered with food (with food): not modified
SMILES: CC(=O)SCC(Cc1ccccc1)C(=O)NCC(=O)OCc1ccccc1 (stereo not drawn) [Racecadotril]
